In ChEMBL document CHEMBL1201862, “PubChem BioAssay data set” (2004):
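Following 48 hours of exposure in 96-well plates, responses at five concentrations were used to interpolate endpoints linearly. GI50 is the concentration that inhibits growth by half.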 Calls of active or inactive are those of the source. No stated cut-off is given here; in the data, active = GI50 up to about 1.1 µM and inactive = higher.

Columns and labels:
Assay in all cases: NCI anticancer screen, dose series, 48 h
RXF 631 = system: RXF 631
LXFL 529 = system: LXFL 529
M19-MEL = system: M19-MEL
786-0 = system: 786-0
MDA-MB-435 = system: MDA-MB-435
NCI/ADR-RES = system: NCI/ADR-RES
BT-549 = system: BT-549
HOP-18 = system: HOP-18
XF498 = system: XF498

Measured: GI50

Nc1nc(Cl)cc(NCCCCO)n1
inactive: RXF 631 > 100 µM | LXFL 529 > 100 µM | M19-MEL > 100 µM

O=[N+]([O-])/C(C(Cl)=C(Cl)Cl)=C1\Nc2ccccc2O1
inactive: 786-0 17 µM | MDA-MB-435 36.6 µM

Nc1nc(SCCc2ccccc2)nc2nc3c(c(-c4ccccc4)c12)CCCC3
inactive: NCI/ADR-RES > 100 µM | MDA-MB-435 > 100 µM | BT-549 42 µM

COn1oc(=O)c2ccccc21
inactive: NCI/ADR-RES > 100 µM | 786-0 > 100 µM | MDA-MB-435 > 100 µM | BT-549 > 100 µM

CCOC(=O)CC1(c2cccc3ccccc23)OC(=O)c2ccccc21 (stereo not given)
inactive: LXFL 529 51.2 µM | M19-MEL 48.5 µM | HOP-18 40.4 µM

CC(C)(C)c1ccc2c(c1)OP1(Oc3cccc4cccnc34)(O2)Oc2ccc(C(C)(C)C)cc2O1
inactive: NCI/ADR-RES 2.96 µM | XF498 2.72 µM | M19-MEL 10.5 µM | HOP-18 20.4 µM

O=C(NC(Cc1ccc(I)cc1)C(=O)O)c1cccc(Br)c1 (stereo not given)
inactive: NCI/ADR-RES 99.5 µM | M19-MEL 56.2 µM | HOP-18 > 82.4 µM

CON(C)c1nc(N)c(C#N)c(C#N)c1C#N
inactive: NCI/ADR-RES > 10 µM | MDA-MB-435 > 10 µM

CSc1nc(NC2OCC(O)C(O)C2O)c(N)c(=O)n1C (stereo not given)
inactive: NCI/ADR-RES > 100 µM | XF498 > 100 µM | HOP-18 > 100 µM

CCC1NC(/N=N/c2ccc([N+](=O)[O-])cc2)(P(=O)(OC(C)C)OC(C)C)OC1=O (stereo not given)
inactive: LXFL 529 > 100 µM | XF498 > 100 µM | M19-MEL > 100 µM

C/C(=C\c1ccccc1)n1c(=O)cc(C)n1C
inactive: NCI/ADR-RES > 100 µM | MDA-MB-435 > 100 µM | BT-549 > 100 µM

O=P(Nc1ccc(Cl)cc1)(Oc1ccccc1)N(CCCl)CCCl (stereo not given)
inactive: RXF 631 63.7 µM | LXFL 529 > 100 µM | M19-MEL > 100 µM | HOP-18 > 100 µM

O=S(O)CCCCCSSc1ccccc1
inactive: LXFL 529 17 µM | XF498 24.2 µM | M19-MEL 50 µM

O=C1C[C@H](c2ccccc2)C2(C(=O)c3ccccc3C2=O)[C@H](c2ccccc2)C1
inactive: NCI/ADR-RES > 100 µM | MDA-MB-435 > 100 µM | BT-549 86.9 µM

Oc1cc(-c2ccc(Cl)cc2)nc2ncccc12
inactive: NCI/ADR-RES 36 µM | BT-549 > 100 µM
